Consider 15 compounds from US20210253572A1, “IMIDAZO[1,2-B]PYRIDAZINES AS TRK INHIBITORS” (BenevolentAl Bio Limited, priority 2018, published 2021).

Holding throughout (format): biochemical
One experiment has as its target T1, TrkC (Homo sapiens, UniProt Q16288).
T1 construct: purchased Invitrogen
Put plainly: HTRF KinEASE kinase assay, recombinant Human TRK enzyme, TrkC (NTRK3). The following applies: NTRK3 10 nM, read-out: TrkC Enz. Here is the method:
(§1) A suitable assay for determining the Trk inhibition activity of a compound is detailed herein below.
(§2) To determine the IC50 of small molecule compounds for the Human TRK receptors, HTRF® KinEASE™ kinase kits from Cisbio were used. Assays were carried out in low volume, black 384-well plates.
(§3) Recombinant Human TRK enzymes (Invitrogen) were incubated in the presence or absence of the compound (11-point dose response with FAC as 10 μM) for 30 minutes at 23° C. Kinase reaction was started by addition of ATP to a mixture containing the enzyme (NTRK1-4 nM, NTRK2-1 nM, NTRK3-10 nM) and substrate (1 μM). Kinase reaction was allowed to carry on for 10 to 45 minutes at 23° C. after which it was stopped by addition of the detection mix (supplied by vendor) containing EDTA, TK-Ab-labelled with Eu^3+-cryptate (1:200 dilutions) and Streptavidin-XL665 (250 nM). Assay plates were incubated in this detection mix for 60 minutes at 23° C. The resulting TR-FRET signal, calculated as the fluorescence ratio at 665/620 nm, was read on an Envision and was proportional to the level of phosphorylation of the peptide in the presence or absence of the compound. The uniformity of the plates were assured with Z′ value [1−{3*(SDHPE+SDZPE)/(ZPE−HPE)}]. The percent (%) effect i.e. Inhibition of compound was calculated in comparison to the signal in the positive (HPE) and negative control (ZPE) wells within each assay plate. The endpoint value % Inhibition for the Standard compound was evaluated in each experiment as a quality control measure. IC50 was determined by plotting compound inhibition at respective dose in Graphpad prism5 using four parameter logistic curve fit.

A further experiment concerns the target T2, TrkA (Homo sapiens, UniProt P04629).
T2 construct: purchased Invitrogen
Description: HTRF KinEASE kinase assay, recombinant Human TRK enzyme, TrkA (NTRK1). Conditions: NTRK1 4 nM, read-out: TrkA Enz. Here is the method: as §1, §2, §3

The next experiment addresses T3, TrkB (Homo sapiens, UniProt Q16620).
T3 construct: purchased Invitrogen
Put plainly: HTRF KinEASE kinase assay, recombinant Human TRK enzyme, TrkB (NTRK2). The following applies: NTRK2 1 nM, read-out: TrkB Enz. Here is the method: as §1, §2, §3
On the technique in general: TR-FRET usually uses a lanthanide donor and a delayed reading to cut background.

Structures are written as SMILES. pIC50: −log10 of the molar value.

T2 sequence (P04629 33-796): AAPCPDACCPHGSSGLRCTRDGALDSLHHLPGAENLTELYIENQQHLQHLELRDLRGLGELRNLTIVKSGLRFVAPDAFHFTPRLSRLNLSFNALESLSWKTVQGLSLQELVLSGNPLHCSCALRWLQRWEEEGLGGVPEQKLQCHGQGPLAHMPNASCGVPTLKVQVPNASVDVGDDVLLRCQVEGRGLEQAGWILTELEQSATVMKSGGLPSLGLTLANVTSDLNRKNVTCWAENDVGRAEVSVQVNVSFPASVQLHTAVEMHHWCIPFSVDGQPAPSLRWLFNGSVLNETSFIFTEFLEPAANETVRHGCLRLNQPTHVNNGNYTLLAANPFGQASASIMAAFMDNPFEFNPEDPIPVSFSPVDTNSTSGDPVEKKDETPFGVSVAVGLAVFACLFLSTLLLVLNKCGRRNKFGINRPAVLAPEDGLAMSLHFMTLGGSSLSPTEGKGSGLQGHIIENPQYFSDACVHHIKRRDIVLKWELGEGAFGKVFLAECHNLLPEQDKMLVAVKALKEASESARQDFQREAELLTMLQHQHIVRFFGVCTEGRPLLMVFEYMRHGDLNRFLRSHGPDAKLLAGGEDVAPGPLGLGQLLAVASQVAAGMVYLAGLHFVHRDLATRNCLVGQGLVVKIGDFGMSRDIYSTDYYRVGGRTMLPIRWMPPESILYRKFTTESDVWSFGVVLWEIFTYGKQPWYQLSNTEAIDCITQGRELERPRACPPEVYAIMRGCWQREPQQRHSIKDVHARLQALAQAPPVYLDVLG
T1 sequence (Q16288 32-839): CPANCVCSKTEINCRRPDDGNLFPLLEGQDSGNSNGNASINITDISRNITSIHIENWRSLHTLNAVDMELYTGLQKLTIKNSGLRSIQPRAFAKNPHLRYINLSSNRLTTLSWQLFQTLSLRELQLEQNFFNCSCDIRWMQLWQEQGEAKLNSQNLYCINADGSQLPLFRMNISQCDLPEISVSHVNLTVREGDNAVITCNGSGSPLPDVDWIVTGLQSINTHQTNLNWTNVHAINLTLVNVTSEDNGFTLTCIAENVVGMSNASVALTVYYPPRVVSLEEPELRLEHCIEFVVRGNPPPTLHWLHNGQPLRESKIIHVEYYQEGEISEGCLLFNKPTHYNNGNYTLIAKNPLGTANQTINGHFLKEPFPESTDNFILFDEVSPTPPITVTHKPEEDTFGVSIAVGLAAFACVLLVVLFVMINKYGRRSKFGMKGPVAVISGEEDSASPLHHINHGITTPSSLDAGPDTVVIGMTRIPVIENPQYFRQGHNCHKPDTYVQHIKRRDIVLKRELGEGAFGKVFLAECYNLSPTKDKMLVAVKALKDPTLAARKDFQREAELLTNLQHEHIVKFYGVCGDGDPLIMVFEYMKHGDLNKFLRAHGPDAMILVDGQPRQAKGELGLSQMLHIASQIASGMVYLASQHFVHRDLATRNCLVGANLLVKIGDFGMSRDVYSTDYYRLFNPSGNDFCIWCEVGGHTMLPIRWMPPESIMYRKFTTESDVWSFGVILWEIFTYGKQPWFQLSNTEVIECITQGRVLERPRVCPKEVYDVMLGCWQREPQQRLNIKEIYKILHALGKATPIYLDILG
T3 sequence (Q16620 32-822): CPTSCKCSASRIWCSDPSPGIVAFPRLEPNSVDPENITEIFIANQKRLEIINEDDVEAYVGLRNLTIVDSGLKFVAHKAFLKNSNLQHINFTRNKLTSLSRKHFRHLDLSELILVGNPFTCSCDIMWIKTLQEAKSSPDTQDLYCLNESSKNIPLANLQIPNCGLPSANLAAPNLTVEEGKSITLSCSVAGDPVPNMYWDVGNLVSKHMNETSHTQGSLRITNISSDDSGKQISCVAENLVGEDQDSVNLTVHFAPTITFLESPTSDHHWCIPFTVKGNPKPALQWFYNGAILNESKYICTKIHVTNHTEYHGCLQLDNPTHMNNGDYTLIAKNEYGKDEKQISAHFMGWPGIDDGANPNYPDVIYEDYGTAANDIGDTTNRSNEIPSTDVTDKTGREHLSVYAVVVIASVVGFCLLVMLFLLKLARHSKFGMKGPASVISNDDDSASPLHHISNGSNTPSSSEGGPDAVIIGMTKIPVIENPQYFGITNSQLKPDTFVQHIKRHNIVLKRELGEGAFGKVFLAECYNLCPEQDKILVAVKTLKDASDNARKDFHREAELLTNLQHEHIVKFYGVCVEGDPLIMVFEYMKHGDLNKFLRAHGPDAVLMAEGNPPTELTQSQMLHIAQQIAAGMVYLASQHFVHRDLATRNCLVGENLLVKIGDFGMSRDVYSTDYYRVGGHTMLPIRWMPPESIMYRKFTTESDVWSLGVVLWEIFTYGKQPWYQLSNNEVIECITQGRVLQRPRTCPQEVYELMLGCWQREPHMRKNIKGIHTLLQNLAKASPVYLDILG

Take `COC(=O)c1cccc(CN2CC[C@H](NC(=O)c3cnc4ccc(N5C[C@@H](F)C[C@@H]5c5cc(F)cc(SC)c5)nn34)C2)c1` [Example 16, Methyl 3-{[(3S)-3-{6-[(2R,4S)-4-fluoro-2-[3-fluoro-5-(methylsulfanyl)phenyl]pyrrolidin-1-yl]imidazo[1,2-b]pyridazine-3-amido}pyrrolidin-1-yl]methyl}benzoate]: the figures for the pIC50 at TrkC, at TrkA and at TrkB were 8.48, 8.76 and 8.34, respectively.

Consider `CSc1ccc(F)cc1[C@H]1C[C@H](F)CN1c1ccc2ncc(C(=O)NC3CCN(Cc4cccc(O)c4)CC3)n2n1` [Example 3, 6-[(2R,4S)-4-fluoro-2-[5-fluoro-2-(methylsulfanyl)phenyl]pyrrolidin-1-yl]-N-{1-[(3-hydroxyphenyl)methyl]piperidin-4-yl}imidazo[1,2-b]pyridazine-3-carboxamide], for which the pIC50 is 8.92 at TrkC, 9.04 at TrkA and 9.10 on TrkB.

With `CSc1ccc(F)cc1[C@H]1CCCN1c1ccc2ncc(C(=O)N[C@H]3CCN(Cc4ccc(F)c(O)c4)C3)n2n1` [Example 2, 6-[(2R)-2-[5-fluoro-2-(methylsulfanyl)phenyl]pyrrolidin-1-yl]-N-[(3S)-1-[(4-fluoro-3-hydroxyphenyl)methyl]pyrrolidin-3-yl]imidazo[1,2-b]pyridazine-3-carboxamide], the pIC50 at TrkC is 8.47; at TrkA, 8.75; on TrkB, 8.48.

For the compound `CCCCOC(=O)c1cccc(CN2CC[C@H](NC(=O)c3cnc4ccc(N5C[C@@H](F)C[C@@H]5c5cc(F)cc(SC)c5)nn34)C2)c1` [Example 30, Butyl 3-{[(3S)-3-{6-[(2R,4S)-4-fluoro-2-[3-fluoro-5-(methylsulfanyl)phenyl]pyrrolidin-1-yl]imidazo[1,2-b]pyridazine-3-amido}pyrrolidin-1-yl]methyl}benzoate], the results for the pIC50 on TrkC, at TrkA and at TrkB were 7.65, 7.65 and 7.83, respectively.

Turning to `CO[C@H]1CN(Cc2ccc(F)c(O)c2)C[C@@H]1NC(=O)c1cnc2ccc(N3C[C@@H](F)C[C@@H]3c3cc(F)cc(SC)c3)nn12` [Example 23, 6-[(2R,4S)-4-fluoro-2-[3-fluoro-5-(methylsulfanyl)phenyl]pyrrolidin-1-yl]-N-[(3S,4S)-1-[(4-fluoro-3-hydroxyphenyl)methyl]-4-methoxypyrrolidin-3-yl]imidazo[1,2-b]pyridazine-3-carboxamide], the figures for the pIC50 on TrkC, at TrkA and on TrkB were 8.16, 8.63 and 7.99, respectively.

Consider `CSc1cc(F)cc([C@H]2C[C@H](F)CN2c2ccc3ncc(C(=O)N[C@H]4CCN(Cc5cccc(OC(C)=O)c5)C4)n3n2)c1` [Example 28, 3-{[(3S)-3-{6-[(2R,4S)-4-fluoro-2-[3-fluoro-5-(methylsulfanyl)phenyl]pyrrolidin-1-yl]imidazo[1,2-b]pyridazine-3-amido}pyrrolidin-1-yl]methyl}phenyl Acetate], for which the pIC50 on TrkC was 8.31; at TrkA, 8.33; at TrkB it was 8.25.

In the case of `CCCCC(=O)Oc1cccc(CN2CC[C@H](NC(=O)c3cnc4ccc(N5C[C@@H](F)C[C@@H]5c5cc(F)ccc5SC)nn34)C2)c1` [Example 9, 3-{[(3S)-3-{6-[(2R,4S)-4-fluoro-2-[5-fluoro-2-(methylsulfanyl)phenyl]pyrrolidin-1-yl]imidazo[1,2-b]pyridazine-3-amido}pyrrolidin-1-yl]methyl}phenyl Pentanoate], the pIC50 was 8.07 on TrkC, 8.42 on TrkA and 8.06 at TrkB.

For the compound `CSc1ccc(F)cc1[C@H]1C[C@H](F)CN1c1ccc2ncc(C(=O)NCc3ccc(F)c(O)c3)n2n1` [Example 14, 6-[(2R,4S)-4-fluoro-2-[5-fluoro-2-(methylsulfanyl)phenyl]pyrrolidin-1-yl]-N-[(4-fluoro-3-hydroxyphenyl)methyl]imidazo[1,2-b]pyridazine-3-carboxamide], the pIC50 was 8.83 at TrkC, 9.02 on TrkA and 9.24 at TrkB.

Take `CSc1cc(F)cc([C@H]2C[C@H](F)CN2c2ccc3ncc(C(=O)NC4CCN(Cc5ccc(F)c(O)c5)CC4)n3n2)c1` [Example 21, 6-[(2R,4S)-4-fluoro-2-[3-fluoro-5-(methylsulfanyl)phenyl]pyrrolidin-1-yl]-N-{1-[(4-fluoro-3-hydroxyphenyl)methyl]piperidin-4-yl}imidazo[1,2-b]pyridazine-3-carboxamide]: the figures for the pIC50 at TrkC, at TrkA and at TrkB were 8.71, 8.83 and 8.82, respectively.

With `CSc1cc(F)cc([C@H]2C[C@H](F)CN2c2ccc3ncc(C(=O)N[C@H]4CCN(Cc5cccc(C(=O)O)c5)C4)n3n2)c1` [Example 29, 3-{[(3S)-3-{6-[(2R,4S)-4-fluoro-2-[3-fluoro-5-(methylsulfanyl)phenyl]pyrrolidin-1-yl]imidazo[1,2-b]pyridazine-3-amido}pyrrolidin-1-yl]methyl}benzoic Acid], the pIC50 at TrkC is 8.40; on TrkA it was 8.23; at TrkB it was 8.27.

With `COC(=O)c1cccc(CN2CC[C@H](NC(=O)c3cnc4ccc(N5C[C@@H](F)C[C@@H]5c5cc(F)ccc5SC)nn34)C2)c1` [Example 10, Methyl 3-{[(3S)-3-{6-[(2R,4S)-4-fluoro-2-[5-fluoro-2-(methylsulfanyl)phenyl]pyrrolidin-1-yl]imidazo[1,2-b]pyridazine-3-amido}pyrrolidin-1-yl]methyl}benzoate], the pIC50 on TrkC was 8.67; at TrkA it was 8.93; at TrkB, 8.67.

For the compound `CCOC(=O)c1cccc(CN2CC[C@H](NC(=O)c3cnc4ccc(N5C[C@@H](F)C[C@@H]5c5cc(F)ccc5SC)nn34)C2)c1` [Example 13, Ethyl 3-{[(3S)-3-{6-[(2R,4S)-4-fluoro-2-[5-fluoro-2-(methylsulfanyl)phenyl]pyrrolidin-1-yl]imidazo[1,2-b]pyridazine-3-amido}pyrrolidin-1-yl]methyl}benzoate], the pIC50 at TrkC was 8.70; on TrkA, 8.77; at TrkB it was 8.60.

Take `CSc1cc(F)cc([C@H]2CCCN2c2ccc3ncc(C(=O)N[C@H]4CCN(Cc5ccc(F)c(O)c5)C4)n3n2)c1` [Example 15, N-[(3S)-1-[(4-fluoro-3-hydroxyphenyl)methyl]pyrrolidin-3-yl]-6-[(2R)-2-[3-fluoro-5-(methylsulfanyl)phenyl]pyrrolidin-1-yl]imidazo[1,2-b]pyridazine-3-carboxamide]: the pIC50 at TrkC is 8.08; on TrkA it was 8.31; at TrkB, 8.04.

`CSc1cc(F)cc([C@H]2C[C@H](F)CN2c2ccc3ncc(C(=O)N[C@H]4COCCN(Cc5ccc(F)c(O)c5)C4)n3n2)c1` (single isomer, unassigned) [Example 25]: the pIC50 at TrkC was 8.06; at TrkA, 8.21; on TrkB it was 7.94.

Turning to `CSc1cc(F)cc([C@H]2C[C@H](F)CN2c2ccc3ncc(C(=O)NC4CN(Cc5cccc(O)c5)C4)n3n2)c1` [Example 20, 6-[(2R,4S)-4-fluoro-2-[3-fluoro-5-(methylsulfanyl)phenyl]pyrrolidin-1-yl]-N-{1-[(3-hydroxyphenyl)methyl]azetidin-3-yl}imidazo[1,2-b]pyridazine-3-carboxamide], the figures for the pIC50 on TrkC, on TrkA and on TrkB were 8.43, 8.57 and 8.42, respectively.
